According to US11000033B2, “Ketone or oxime compound, and herbicide” (NISSAN CHEMICAL CORPORATION, priority 2014, dated 2021):

How the values were obtained:
Assay type in all cases: in vivo
beet [1] = assay: Test Example 4: effect on crop by soil treatment (symbol f); conditions: for f (beet) effect on crop grade: application herbicide amount 320 g/ha; for f: beet, effect grade on crop: 320 g/ha
Method in brief: (§1)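 Steps: fill box with sterilized diluvial soil; sow seed spot-like; cover with ~1.5 cm soil; grow in greenhouse (25° C. to 30° C.).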

Abutilon theophrasti [2] = assay: Test Example 4: herbicidal effect by soil treatment (symbol M); conditions: for M (Abutilon theophrasti) herbicidal effect grade: application herbicide amount 320 g/ha; for M: Abutilon theophrasti, herbicidal effect grade: 320 g/ha
Method in brief: (§2)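 Seeds were sown in sterilized diluvial soil, covered with about 1.5 cm of soil, and the soil surface was sprayed with a water-diluted emulsion of the compound at a predetermined rate. Plants grew in a greenhouse at 25° C. to 30° C.; effects were scored visually 3 weeks after application.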

Abutilon theophrasti [3] = assay: Test Example 5: herbicidal effect by foliage application, plastic box (symbol M); conditions: 320 g/ha, 3 weeks after application
Method in brief: (§3)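 Visual herbicidal score, taken three weeks post-application, of seedlings sprayed on the foliage with water-diluted emulsion at a predetermined amount; plants were 14 days old, greenhouse-raised at 25° C. to 30° C.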

Lolium multiflorum Lam. = assay: Test Example 5: herbicidal effect by foliage application, plastic box (symbol K); conditions: 320 g/ha, 3 weeks after application
Method in brief: as §3

Leptochloa chinensis = assay: Test Example 3: herbicidal effect by foliage application, Wagner pot (symbol D); conditions: application herbicide amount 320 g/ha
Method in brief: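 Post-emergence, paddy-type test: seedlings 14 d old in shallow-flooded (0.1–0.5 cm) alluvial soil, 25–30 °C greenhouse. Emulsion diluted to target rate, sprayed on leaves. Read-out: visual effect on each species at 3 weeks, per set criteria.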

Scirpus juncoides = assay: Test Example 2: herbicidal activity, application during weed generation in submerged conditions (symbol B); conditions: Table 23; application herbicide amount 320 g/ha; grade 0-5 by criteria of Test Example 1
Method in brief: (§4)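 Steps: fill pots with alluvial soil; add water to 4 cm depth; co-sow the three weeds; grow at 25° C. to 30° C. under glass; at 1–2 leaves, dose the floodwater with diluted emulsion; rate damage visually after 3 weeks.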

transplanted rice plant = assay: Test Example 1: effect on crop, application before weed generation in submerged conditions (symbol a); conditions: application herbicide amount 320 g/ha
Method in brief: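 Alluvial soil pots flooded to 4 cm water, sown with Echinochloa oryzacola, Scirpus juncoides and Monochoria vaginalis, then transplanted with 2.5 leaf stage rice seedlings; pre-emergence application. Greenhouse 25° C. to 30° C.; scored 0–5 by herbicidal ratio 3 weeks after application.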

Avena fatua = assay: Test Example 4: herbicidal effect by soil treatment (symbol I); conditions: for I (Avena fatua) herbicidal effect grade: application herbicide amount 320 g/ha; for I: Avena fatua, herbicidal effect grade: 320 g/ha
Method in brief: as §2

soybean = assay: Test Example 4: effect on crop by soil treatment (symbol d); conditions: for d (soybean) effect on crop grade: application herbicide amount 320 g/ha; for d: soybean, effect grade on crop: 320 g/ha
Method in brief: as §1

[4] = tested on: Echinochloa oryzacola Vasing.; assay: Test Example 2: herbicidal activity, application during weed generation in submerged conditions (symbol A); conditions: Table 23; application herbicide amount 320 g/ha; grade 0-5 by criteria of Test Example 1
Method in brief: as §4

Setaria viridis = assay: Test Example 5: herbicidal effect by foliage application, plastic box (symbol G); conditions: 320 g/ha, 3 weeks after application
Method in brief: as §3

beet [5] = assay: Test Example 5: effect on crop by foliage application, plastic box (symbol f); conditions: 320 g/ha, 3 weeks after application
Method in brief: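 Box culture: sterile diluvial soil, seeds spot-sown, ~1.5 cm cover, raised under glass at 25–30° C.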

CC(CC1CC(O)=C(c2c(C)cc(C)cc2C)C1=O)=NOCC[Si](C)(C)C (stereo not drawn) [1-055]
f (beet) effect on crop grade (beet [1]): 0 (Herbicidal ratio of 5% or lower (almost no effect)) | M (Abutilon theophrasti) herbicidal effect grade (Abutilon theophrasti [2]): 0 (Herbicidal ratio of 5% or lower (almost no effect)) | M: Abutilon theophrasti, herbicidal effect grade (Abutilon theophrasti [3]): 0 (Herbicidal ratio of 5% or lower (almost no effect)) | K: Lolium multiflorum Lam., herbicidal effect grade (Lolium multiflorum Lam.): 5 (Herbicidal ratio of 90% or more (almost completely withered)) | herbicidal effect on D (Leptochloa chinensis), grade 0-5 (Leptochloa chinensis): 5 (Herbicidal ratio of 90% or more (almost completely withered)) | Herbicidal effect grade, B: Scirpus juncoides (Scirpus juncoides): 0 (Herbicidal ratio of 5% or lower (almost no effect)) | Effect grade on crop, a: transplanted rice plant (transplanted rice plant): 5 (Herbicidal ratio of 90% or more (almost completely withered)) | I (Avena fatua) herbicidal effect grade (Avena fatua): 0 (Herbicidal ratio of 5% or lower (almost no effect)) | d (soybean) effect on crop grade (soybean): 0 (Herbicidal ratio of 5% or lower (almost no effect)) | Herbicidal effect grade, A: Echinochloa oryzacola Vasing. [4]: 2 (Herbicidal ratio of 20% or higher and lower than 40%) | G: Setaria viridis, herbicidal effect grade (Setaria viridis): 3 (Herbicidal ratio of 40% or higher and lower than 70%) | f: beet, effect on crop grade (beet [5]): 0 (Herbicidal ratio of 5% or lower (almost no effect))

CC#CC(=O)OC1=C(c2c(C)cc(C)cc2C)C(=O)C(CC(C)=NOC)C1 (stereo not drawn) [1-095]
f: beet, effect grade on crop (beet [1]): 0 (Herbicidal ratio of 5% or lower (almost no effect)) | M: Abutilon theophrasti, herbicidal effect grade (Abutilon theophrasti [2]): 4 (Herbicidal ratio of 70% or higher and lower than 90%) | M: Abutilon theophrasti, herbicidal effect (criteria 0-5) (Abutilon theophrasti [3]): 4 (Herbicidal ratio of 70% or higher and lower than 90%) | K: Lolium multiflorum Lam., herbicidal effect (criteria 0-5) (Lolium multiflorum Lam.): 5 (Herbicidal ratio of 90% or more (almost completely withered)) | herbicidal effect on D (Leptochloa chinensis), grade 0-5 (Leptochloa chinensis): 5 (Herbicidal ratio of 90% or more (almost completely withered)) | Herbicidal effect grade, B: Scirpus juncoides (Scirpus juncoides): 4 (Herbicidal ratio of 70% or higher and lower than 90%) | Effect grade on crop, a: transplanted rice plant (transplanted rice plant): 5 (Herbicidal ratio of 90% or more (almost completely withered)) | I: Avena fatua, herbicidal effect grade (Avena fatua): 3 (Herbicidal ratio of 40% or higher and lower than 70%) | d: soybean, effect grade on crop (soybean): 0 (Herbicidal ratio of 5% or lower (almost no effect)) | Herbicidal effect grade, A: Echinochloa oryzacola Vasing. [4]: 5 (Herbicidal ratio of 90% or more (almost completely withered)) | G: Setaria viridis, herbicidal effect (criteria 0-5) (Setaria viridis): 5 (Herbicidal ratio of 90% or more (almost completely withered)) | f: beet, effect on crop (criteria 0-5) (beet [5]): 0 (Herbicidal ratio of 5% or lower (almost no effect))

COCC(=O)OC1=C(c2c(C)cc(C)cc2C)C(=O)C(CC(C)=NOC)C1 (stereo not drawn) [1-093]
f: beet, effect grade on crop (beet [1]): 0 (Herbicidal ratio of 5% or lower (almost no effect)) | M: Abutilon theophrasti, herbicidal effect grade (Abutilon theophrasti [2]): 4 (Herbicidal ratio of 70% or higher and lower than 90%) | M: Abutilon theophrasti, herbicidal effect (criteria 0-5) (Abutilon theophrasti [3]): 4 (Herbicidal ratio of 70% or higher and lower than 90%) | K: Lolium multiflorum Lam., herbicidal effect (criteria 0-5) (Lolium multiflorum Lam.): 5 (Herbicidal ratio of 90% or more (almost completely withered)) | herbicidal effect on D (Leptochloa chinensis), grade 0-5 (Leptochloa chinensis): 5 (Herbicidal ratio of 90% or more (almost completely withered)) | Herbicidal effect grade, B: Scirpus juncoides (Scirpus juncoides): 5 (Herbicidal ratio of 90% or more (almost completely withered)) | Effect grade on crop, a: transplanted rice plant (transplanted rice plant): 5 (Herbicidal ratio of 90% or more (almost completely withered)) | I: Avena fatua, herbicidal effect grade (Avena fatua): 3 (Herbicidal ratio of 40% or higher and lower than 70%) | d: soybean, effect grade on crop (soybean): 0 (Herbicidal ratio of 5% or lower (almost no effect)) | Herbicidal effect grade, A: Echinochloa oryzacola Vasing. [4]: 5 (Herbicidal ratio of 90% or more (almost completely withered)) | G: Setaria viridis, herbicidal effect (criteria 0-5) (Setaria viridis): 5 (Herbicidal ratio of 90% or more (almost completely withered)) | f: beet, effect on crop (criteria 0-5) (beet [5]): 0 (Herbicidal ratio of 5% or lower (almost no effect))

CON=C(C)CC1CC(OC(=O)COc2cccc(C#N)c2)=C(c2c(C)cc(C)cc2C)C1=O (stereo not drawn) [1-074]
f (beet) effect on crop grade (beet [1]): 0 (Herbicidal ratio of 5% or lower (almost no effect)) | M (Abutilon theophrasti) herbicidal effect grade (Abutilon theophrasti [2]): 5 (Herbicidal ratio of 90% or more (almost completely withered)) | M: Abutilon theophrasti, herbicidal effect (criteria 0-5) (Abutilon theophrasti [3]): 3 (Herbicidal ratio of 40% or higher and lower than 70%) | K: Lolium multiflorum Lam., herbicidal effect (criteria 0-5) (Lolium multiflorum Lam.): 5 (Herbicidal ratio of 90% or more (almost completely withered)) | herbicidal effect on D (Leptochloa chinensis), grade 0-5 (Leptochloa chinensis): 5 (Herbicidal ratio of 90% or more (almost completely withered)) | Herbicidal effect grade, B: Scirpus juncoides (Scirpus juncoides): 4 (Herbicidal ratio of 70% or higher and lower than 90%) | Effect grade on crop, a: transplanted rice plant (transplanted rice plant): 5 (Herbicidal ratio of 90% or more (almost completely withered)) | I (Avena fatua) herbicidal effect grade (Avena fatua): 4 (Herbicidal ratio of 70% or higher and lower than 90%) | d (soybean) effect on crop grade (soybean): 0 (Herbicidal ratio of 5% or lower (almost no effect)) | Herbicidal effect grade, A: Echinochloa oryzacola Vasing. [4]: 5 (Herbicidal ratio of 90% or more (almost completely withered)) | G: Setaria viridis, herbicidal effect (criteria 0-5) (Setaria viridis): 5 (Herbicidal ratio of 90% or more (almost completely withered)) | f: beet, effect on crop (criteria 0-5) (beet [5]): 0 (Herbicidal ratio of 5% or lower (almost no effect))

CON=C(C)CC1CC(OC(=O)C(C)(C)Oc2ccccc2Cl)=C(c2c(C)cc(C)cc2C)C1=O (stereo not drawn) [1-064]
f (beet) effect on crop grade (beet [1]): 0 (Herbicidal ratio of 5% or lower (almost no effect)) | M (Abutilon theophrasti) herbicidal effect grade (Abutilon theophrasti [2]): 3 (Herbicidal ratio of 40% or higher and lower than 70%) | M: Abutilon theophrasti, herbicidal effect grade (Abutilon theophrasti [3]): 4 (Herbicidal ratio of 70% or higher and lower than 90%) | K: Lolium multiflorum Lam., herbicidal effect grade (Lolium multiflorum Lam.): 3 (Herbicidal ratio of 40% or higher and lower than 70%) | herbicidal effect on D (Leptochloa chinensis), grade 0-5 (Leptochloa chinensis): 5 (Herbicidal ratio of 90% or more (almost completely withered)) | Herbicidal effect grade, B: Scirpus juncoides (Scirpus juncoides): 4 (Herbicidal ratio of 70% or higher and lower than 90%) | Effect grade on crop, a: transplanted rice plant (transplanted rice plant): 4 (Herbicidal ratio of 70% or higher and lower than 90%) | I (Avena fatua) herbicidal effect grade (Avena fatua): 3 (Herbicidal ratio of 40% or higher and lower than 70%) | d (soybean) effect on crop grade (soybean): 2 (Herbicidal ratio of 20% or higher and lower than 40%) | Herbicidal effect grade, A: Echinochloa oryzacola Vasing. [4]: 5 (Herbicidal ratio of 90% or more (almost completely withered)) | G: Setaria viridis, herbicidal effect grade (Setaria viridis): 5 (Herbicidal ratio of 90% or more (almost completely withered)) | f: beet, effect on crop grade (beet [5]): 1 (Herbicidal ratio of 5% or higher and lower than 20%)

C=CC(CC1CC(O)=C(c2c(C)cc(C)cc2C)C1=O)=NOC (stereo not drawn) [1-086]
f: beet, effect grade on crop (beet [1]): 0 (Herbicidal ratio of 5% or lower (almost no effect)) | M: Abutilon theophrasti, herbicidal effect grade (Abutilon theophrasti [2]): 0 (Herbicidal ratio of 5% or lower (almost no effect)) | M: Abutilon theophrasti, herbicidal effect (criteria 0-5) (Abutilon theophrasti [3]): 0 (Herbicidal ratio of 5% or lower (almost no effect)) | K: Lolium multiflorum Lam., herbicidal effect (criteria 0-5) (Lolium multiflorum Lam.): 5 (Herbicidal ratio of 90% or more (almost completely withered)) | herbicidal effect on D (Leptochloa chinensis), grade 0-5 (Leptochloa chinensis): 4 (Herbicidal ratio of 70% or higher and lower than 90%) | Herbicidal effect grade, B: Scirpus juncoides (Scirpus juncoides): 0 (Herbicidal ratio of 5% or lower (almost no effect)) | Effect grade on crop, a: transplanted rice plant (transplanted rice plant): 3 (Herbicidal ratio of 40% or higher and lower than 70%) | I: Avena fatua, herbicidal effect grade (Avena fatua): 3 (Herbicidal ratio of 40% or higher and lower than 70%) | d: soybean, effect grade on crop (soybean): 0 (Herbicidal ratio of 5% or lower (almost no effect)) | Herbicidal effect grade, A: Echinochloa oryzacola Vasing. [4]: 5 (Herbicidal ratio of 90% or more (almost completely withered)) | G: Setaria viridis, herbicidal effect (criteria 0-5) (Setaria viridis): 3 (Herbicidal ratio of 40% or higher and lower than 70%) | f: beet, effect on crop (criteria 0-5) (beet [5]): 0 (Herbicidal ratio of 5% or lower (almost no effect))
